Assay results taken from patent publication US7183068B2, “Methods of manufacturing glucose measuring assemblies with hydrogels” (Animas Technologies, LLC, priority 1999, dated 2007).
“And” between values parts separate entries of the source, which are not always exact repeats. Equal entries are not always repeated.

Experiments:
[1] = Loss of undecylenic acid from hydrogel, gel control, GC; type: physicochemical; details: Two Weeks at Room Temperature
Experimental: (§1) Collection assemblies incorporating sodium undecylenate-comprising hydrogels were assayed for retention of the biocide within the hydrogel. The presence of undecylenic acid in the hydrogel and assembly components was determined by gas chromatography (GC) using a Hewlett Packard (Avondale, Pa.) 5890 gas chromatogram equipped with an HP 3396A integrator. The hydrogels and collection assembly components were cut using a ¾ inch punch to generate the samples to assay. Each sample “disk” was added to 4 mL of 1M HCl, and the undecylenic acid was extracted for 2 hours while shaking on an orbital shaker at 150 rpm, followed by 10 minutes at 100 rpm. The sample disks were then extracted twice with 4 mL of ethyl acetate. Samples 1 μL in volume were injected into the GC and the results compared to that generated for a standard solution of undecylenic acid.

[2] = Adsorption of undecylenic acid from hydrogel into gel retaining layer, GC; type: physicochemical; details: Two Weeks at Room Temperature
Experimental: as §1

[3] = Response of sensing electrode to glucose, acetaminophen and uric acid in presence of biocide (percent recovery); details: preconditioned 10 minutes at 0.77V, 50 minutes at 0.42V
Description: Two biocides were compared with respect to the effects their presence (within the ionically conductive medium) had on signal generation at the sensing element under three conditions: in the presence of glucose, glucose plus acetaminophen, and glucose plus uric acid. The Nipastat® biocide was shown in the examples above to form a permeation selective barrier at the reactive face of the sensor element. The second biocide tested, undecylenic acid, was not expected to polymerize under the iontophoretic conditions used during the functionality test as described in the previous example. The measured responses of the sensor elements are presented in Table 7, normalized to a control “background” response for each sensor element. As described in Example 5, the sensor electrodes were assembled with the collection insert layer containing the appropriate ionically conductive material (control, Nipastat® biocide, or undecylenic acid biocide) to form the autosensor assemblies. The autosensor assemblies were preconditioned for 10 minutes at 0.77V, followed by 50 minutes at 0.42V, after which the glucose solution (200 μM) plus or minus the interferant species was deposited onto the ionically conductive material, and the response of the sensor element measured from this time forward.

[4] = Adsorption of undecylenic acid from hydrogel into mask layer, GC; type: physicochemical; details: Two Weeks at Room Temperature
Experimental: as §1

[5] = system: Pseudomonas aeruginosa; experiment: Modified USP antimicrobial preservative effectiveness test of hydrogels; type: cell-based; details: Pseudomonas aeruginosa inoculation, 28 day period
Experimental: (§2) Nipastat® biocide and undecylenic acid were compared with respect to the effects their presence (within the ionically conductive medium) had on microbial growth over time. A modified USP antimicrobial preservative effectiveness test was performed, using Aspergillus niger, Candida albicans, Eschericia coli, Pseudomonas aeruginosa and Staphylococcus aureus. Separate portions of the two hydrogels were inoculated with a low concentration of one of the listed microorganisms, and recovery of the microorganism was determined over a period of 28 days. For this assay, the microorganisms were cultured, harvested and diluted to yield working suspensions of 2.0×10^3 to 2.0×10^4 colony forming units (CFUs)/sample.

[6] = system: Eschericia coli; experiment: as above; type: cell-based; details: Eschericia coli inoculation, 28 day period
Experimental: as §2

[7] = system: Aspergillus niger; experiment: as above; type: cell-based; details: Aspergillus niger inoculation, 28 day period
Experimental: as §2

[8] = system: Staphylococcus aureus; experiment: as above; type: cell-based; details: Staphylococcus aureus inoculation, 28 day period
Experimental: as §2

[9] = system: Candida albicans; experiment: as above; type: cell-based; details: Candida albicans inoculation, 28 day period
Experimental: as §2

[10] = Adsorption of Nipastat paraben components from hydrogel by mask layer, HPLC of gel extract; type: physicochemical; details: 48 Hours at 4° C.; for % Loss of Nipastat ® biocide from Gel: Gel + Mask versus Gel Control; for HPLC peak intensity of paraben extracted from hydrogel, Average: average of 5; for HPLC peak intensity of paraben extracted from hydrogel: individual samples 1-5
Experimental: (§3) Nipastat®-containing hydrogels were formulated with the appropriate buffer salts under standard conditions, from which samples were taken for analysis. […] The hydrogels were cut using a ¾ inch punch to generate the sample disks to assay. Each disk was added to 5 mL of acetonitrile/water (30% ACN, v/v) and the Nipastat® biocide was extracted for 1 hour while shaking on an orbital shaker at 100 rpm. The extract was then filtered through a 0.2 μm membrane prior to HPLC separation and UV detection at 254 nm.
(§4) Reverse phase HPLC chromatography was performed using a Waters 3.9 mm×15 cm Nova-Pak C-18 column (Milford, Mass.) operating at a flow rate of between about 1.0 to 2.0 mL/min. at 35° C. The eluent was monitored by UV at 254 nm using a Shimadzu SPD-10AU UV-Visible spectrometer (Kyoto, Japan). Samples 10 μL in volume were injected into the column equilibrated in 30% ACN in water, and the following 20-minute gradient program was performed: • 1. Initial time of injection: 30% ACN/70% water at a flow rate of 1 mL/min • 2. Linear Gradient from 30% ACN to 80% ACN for 9.0 minutes (1 mL/min) • 3. Linear Gradient from 80% ACN to 100% ACN for 0.5 minutes (1 mL/min) • 4. 100% ACN for 4.5 minutes (1 mL/min) • 5. Linear Gradient from 100% ACN to 30% ACN for 0.5 minutes at a flow rate of 2 mL/min • 6.30% ACN for 5.5 minutes at a flow rate of 1 mL/min
(§5) The HPLC profiles of the extracts were compared with that of a standard solution of known concentration comprising the p-hydroxybenzoate derivatives. The peak intensities of the experimental samples are compared to those of the standards to determine relative amounts of each extracted paraben.
(§6) Collection assemblies incorporating Nipastat® biocide-comprising hydrogels were assayed for retention of the biocide within the hydrogel. Samples of the hydrogel prior to and after incorporation into the collection assembly, as well as the components of the collection assembly in contact with the hydrogel, were prepared as described in Example 1.

[11] = Adsorption of Nipastat paraben components from hydrogel by gel retaining layer, HPLC of gel extract; type: physicochemical; details: 9 Days at 4° C.; for % Loss of Nipastat ® biocide from Gel: Gel + GRL versus Gel Control; for HPLC peak intensity of paraben extracted from hydrogel, Average: average of 5; for HPLC peak intensity of paraben extracted from hydrogel: individual samples 1-5
Experimental: as §3, §4, §5, §6

| Compound | % Loss of Nipastat ® biocide from Gel [10] [%] | HPLC peak intensity of paraben extracted from hydrogel, Average ([10]; Gel + Mask) | HPLC peak intensity of paraben extracted from hydrogel ([10]; Gel + Mask) | HPLC peak intensity of paraben extracted from hydrogel ([10]; Gel Control) | % Loss of Nipastat ® biocide from Gel [11] [%] | HPLC peak intensity of paraben extracted from hydrogel, Average ([11]; Gel + GRL) | HPLC peak intensity of paraben extracted from hydrogel ([11]; Gel + GRL) | HPLC peak intensity of paraben extracted from hydrogel, Average ([11]; Gel Control) | HPLC peak intensity of paraben extracted from hydrogel ([11]; Gel Control) | HPLC peak intensity of paraben extracted from hydrogel, Average ([10]; Gel Control) | also measured |
| --- | --- | --- | --- | --- | --- | --- | --- | --- | --- | --- | --- |
| C=CCCCCCCCCC(=O)O [undecylenic acid, 10-undecenoic acid] | – | – | – | – | – | – | – | – | – | – | % Loss for Gel Control, Average ([1]; average): 62.4%; % Loss for Gel Control ([1]; individual hydrogel samples): 64.9% and 68.1% and 75.2% and 76.2% and 37.2% and 52.8%; % Loss for Gel + GRL, Average ([2]; average): 28.1%; % Loss for Gel + GRL ([2]; individual hydrogel samples): 37.0% and 28.4% and 22.2% and 24.7%; formation of a permeation selective barrier impeding acetominophen and uric acid signal generation [3]: does not; % Loss for Gel + Mask Layer, Average ([4]; average): 73.1%; % Loss for Gel + Mask Layer ([4]; individual hydrogel samples): 73.3% and 68.5% and 78.2% and 72.5%; biocide activity within the hydrogel: microbial count [5]: effective at reducing the microbial count; effectiveness compared between the two biocides [5]: more effective than the Nipastat® biocide; biocide activity within the hydrogel: microbial count [6]: effective at reducing the microbial count; effectiveness compared between the two biocides [6]: equally effective; biocide activity within the hydrogel: microbial count [7]: effective at reducing the microbial count; effectiveness compared between the two biocides [7]: more effective than the Nipastat® biocide; biocide activity within the hydrogel: microbial count [8]: effective at reducing the microbial count; effectiveness compared between the two biocides [8]: more effective than the Nipastat® biocide; biocide activity within the hydrogel: microbial count [9]: effective at reducing the microbial count; effectiveness compared between the two biocides [9]: equally effective |
| p-hydroxybenzoic acid butyl esters | 99.9 | 87 | 0 (4×) and 436 | 50220 | – | – | – | – | – | – | – |
| CCCOC(=O)c1ccc(O)cc1 [Propyl, p-hydroxybenzoic acid propyl ester] | 99.8 | 50 | 0 (4×) and 252 | 18744 and 22146 and 27621 and 25936 and 28226 | 58.5 | 10873 | 4958 and 11465 and 9664 and 15618 | 26218 | 24034 and 30121 and 30407 and 24349 and 22180 | 24535 | – |
| COC(=O)c1ccc(O)cc1 [Methyl, p-hydroxybenzoic acid methyl ester] | 96.1 | 10075 | 5445 and 11776 and 13807 and 11268 and 8081 | 199735 and 233495 and 282756 and 265561 and 303549 | 17.0 | 231960 | 147682 and 239356 and 231307 and 251620 and 289836 | 279309 | 261836 and 315315 and 313086 and 256304 and 250006 | 257019 | – |
| CCOC(=O)c1ccc(O)cc1 [Ethyl, p-hydroxybenzoic acid ethyl ester] | 99.9 | 57 | 0 (4×) and 285 | 43754 and 52495 and 93771 and 58684 and 69162 | 34.2 | 40848 | 23429 and 43116 and 38410 and 46214 and 53073 | 62118 | 58534 and 68190 and 70588 and 56529 and 56747 | 63573 | – |
